Data set [1] concerns rat hepatocytes. The experiment in a line: Diffusion-reaction model fitted to the uptake data (membrane permeability and esterase kinetics). It is filed as in vitro ADME. The source says: (§1) We assume a lumped passive diffusion model for (n)-O-Ac-Tre across the cell membrane, the rate of change in the intracellular concentration of variants of (n)-O-Ac-Tre, C n, may be expressed using Fick’s first law: d[Cn]/dt=−PnA/V([Cn*]−[Cn]), (1) where P n is the membrane permeability of (n)-O-Ac-Tre. Parameters A and V are cell surface area available for transport and cell volume, respectively. Cn* is the extracellular concentration of (n)-O-Ac-Tre, which is equal to zero for all n<6. For the intracellular de-acetylation of (n)-O-Ac-Tre to (n-1)-O-Ac-Tre by esterase activity, we assume enzymatic reaction kinetics as the following: (n)-O-Ac-Tre+E→knf←knr[(n)-O-Ac-Tre+E]→kncat(n-1)-O-Ac-Tre+E where knf,knr and kncat are the kinetic reaction constants for (n)-O-Ac-Tre variants ranging from 6 to 0. We may assume that the process of de-acetylation of 6-O-Ac-Tre is a series of parallel first order enzymatic reactions competing for enzyme molecules (Fig 2).
(§2) Based on the proposed reaction model, the rate of change in the concentration of (n)-O-Ac-Tre ([C n]) and the intermediate ([C n E]) can be expressed as: d[Cn]/dt=−knf[Cn][En]+knr[CnE]+kn+1cat[Cn+1E]−PnA/V([Cn]−[Cn*]) (2) d[CnE]/dt=knf[Cn][En]−knr[CnE]−kncat[CnE] (3)
(§3) In the above set of equations, [E n] is the fraction of the free enzyme that would interact with [C n]. Assuming quasi-steady-state condition, the left-hand-side of Eq (3) is zero. […] [CnE]=knf[Cn][En]/(knr+kncat) (4)
(§4) We may assume that the probablity of the free enzyme interaction with variants of 6-O-Ac-Tre is directly proportional to respective mole fractions, x n: [En]=[E][Cn]/∑n[Cn]=[E]xn (5) where [E] is the concentration of the free enzyme, which can also be expressed as [E] = [E 0]−∑[C n E]. By replacing Eq (5) in Eq (4), summation over n, and rearranging, we get: [E]=[E0]/1+∑([Cn][xn]/Knm) (6) where Knm=knr+kncat/knf is equivalent of the Michaelis-Menten constant for the enzymatic break-down of (n)-O-Ac-Tre variant. After substituting Eq (6) and Eq (4) in Eq (2) and rearranging, we can propose the rate of change in the concentration of (n)-O-Ac-Tre as the following: d[Cn]/dt=−Vnmax[Cn]xn/Knm(1+∑([Cn][xn]/Knm))+Vn+1max[Cn+1]xn+1/Kn+1m(1+∑([Cn][xn]/Knm))+PnA/V([Cn*]−[Cn]) (7) where Vnmax=kncat[E0] . For trehalose and 6-O-Ac-Tre, the first and second terms on the rights hand side of […] are omitted, respectively. Eq (7) is the general form of the Michaelis-Menten formulation of a multi-step enzymatic reaction for this specific case.
(§5) The permeability coefficient P n, and the coefficients Vnmax and K n in the above list of equations are unknown since no data is available in the literature on these novel molecules to be used in the model. Therefore, the values of these parameters were obtained by fitting the model to the data using a custom-written code in MATLAB (The MathWorks, Natick, MA, USA).
(§6) The proposed diffusion-reaction model in the Methods section allows calculating the permeability coefficients for 6-O-Ac-Tre by fitting the model to the experimental results for 6-O-Ac-Tre. First, we made a few simplifying assumptions. […] We also assumed that the enzymatic kinetics of the de-acetylation process were similar for all the steps of hydrolysis of (n)-O-Ac-Tre to (n-1)-O-Ac-Tre. Therefore, Knm=K^m and Vnmax=V^max for n≤6.
(§7) The model was fit to 3 separate data sets obtained from incubation of cells with 5, 15 and 30 mM 6-O-Ac-Tre, each obtained consisting out of total trehalose and total (n)-O-Ac-Tre variants concentration data (Fig 4, also see S1 Fig). The model was fit to the data up to 9 h incubation. The results are plotted in Fig 4. Using only 3 fitting parameters, the model fit all the 6 data sets very closely with nonlinear regression coefficient R^2 values >0.92. By increasing the incubation concentration from 5 to 30 mM, the value of permeability increased from 2.2×10^−9 to 8.0×10^−9 m s^-1 resulting in an average of 5.0±3.4×10^−9 m s^-1.

Test in data set [2]: as above
The format is in vitro ADME, rat. The conditions noted are these: female, Lewis, rat, not told, pH 7.1, read-out: P, membrane permeability.
Excerpt: as §1, §2, §3, §4, §5, §6, §7

Data set [3] concerns rat hepatocytes. Nature of the data set: MTT cell viability assay after loading. It is filed as cell-based. The conditions noted are these: 48 h after loading with 30 mM. The procedure: To evaluate cell viability after incubation with acetylated trehalose compared to control group, […] 0.5 mg/ml. The cells were incubated with the MTT reagent for 2 hrs. At the end of incubation, the MTT reagent was removed and the cells were incubated with DMSO for 10 min to dissolve all crystallized formazan. Then, the concentration of formazan was assayed by reading the absorption values of the DMSO solution in a spectrophotometric plate reader at 560 nm.
(Formazan colour is commonly taken as a measure of viable cells.)

Data set [4] relates to rat hepatocytes. Nature of the data set: Overall morphology of hepatocytes after loading. It is filed as cell-based. The conditions noted are these: post-loading incubation after 15 and 30 mM for 6 h. The procedure:
We next examined the long-term functional activity of hepatocytes after incubation with 6-O-Ac-Tre. The cells were incubated for 14 days following the incubation with 15 and 30 mM 6-O-Ac-Tre for 6 h (Fig 5). During the post-loading incubation, the cells were examined for overall morphology, viability and the albumin secretion. Mitochondrial membrane potential (ΔΨ) was also examined.

With `CC(=O)OC1C(CO)OC(OC2OC(CO)C(OC(C)=O)C(OC(C)=O)C2OC(C)=O)C(OC(C)=O)C1OC(C)=O` (stereo not shown) [6-O-Ac-Tre, trehalose hexaacetate], the “K^m of intracellular esterase deacetylation” value in data set [1] (Average±S.D. over 5, 15, 30 mM) came to 0.097 ± 0.006 mM; in data set [1] (C* 5 mM) it was 0.09 mM; in data set [1] (C* 15 mM) it was 0.1 mM; in data set [1] (C* 30 mM), 0.1 mM. The “V^max of intracellular esterase deacetylation” value in data set [1] (Average±S.D. over 5, 15, 30 mM) turned out to be 0.0167 ± 0.01 mM/s; in data set [1] (C* 5 mM) it was 0.007 mM/s; in data set [1] (C* 15 mM), 0.016 mM/s; in data set [1] (C* 30 mM) it was 0.027 mM/s. Further, the K m in data set [1] (constant from 5 to 30 mM incubation) is on record as ~ 0.1 mM. Also, in data set [1] (hydrolysis of acetylated trehalose), the “average conversion rate by esterases” value was 60 ± 36 mM/h. In addition, in data set [2] (Average±S.D. over 5, 15, 30 mM), the Papp at 9 h came out at 0.5 ×10⁻⁶ cm/s. Further, in data set [2] (C* 5 mM, fit up to 9 h), the Papp at 9 h, 5 mM is 0.22 ×10⁻⁶ cm/s. Besides, in data set [2] (C* 15 mM, fit up to 9 h), the Papp at 9 h, 15 mM is 0.39 ×10⁻⁶ cm/s. Besides, the Papp at 9 h, 30 mM in data set [2] (C* 30 mM, fit up to 9 h) turned out to be 0.8 ×10⁻⁶ cm/s. The “MTT viability versus control” value in data set [3] is listed as “no significant difference”. The “overall morphology and lipid droplet formation versus control” value in data set [4] is recorded as “minimal changes”.

These data come from publication PMC4482662, “Engineered Trehalose Permeable to Mammalian Cells” (PLoS ONE, 2015).
